Assay results reported in publication PMC8684776, “Discovery and characterization of potent And‐1 inhibitors for cancer treatment” (Clinical and Translational Medicine, 2021).
Counter-ions that a name gives are not always drawn. Like-named read-outs stand apart in the source and are kept apart here.

Columns and labels:
And‐1 [1] = target: T1, And‐1 (Homo sapiens, UniProt O75717); assay: And‐1 luciferase reporter assay (qHTS of LOPAC); format: cell-based
T1 construct: expressed in transfected cells
T1 sequence (O75717 1-1129): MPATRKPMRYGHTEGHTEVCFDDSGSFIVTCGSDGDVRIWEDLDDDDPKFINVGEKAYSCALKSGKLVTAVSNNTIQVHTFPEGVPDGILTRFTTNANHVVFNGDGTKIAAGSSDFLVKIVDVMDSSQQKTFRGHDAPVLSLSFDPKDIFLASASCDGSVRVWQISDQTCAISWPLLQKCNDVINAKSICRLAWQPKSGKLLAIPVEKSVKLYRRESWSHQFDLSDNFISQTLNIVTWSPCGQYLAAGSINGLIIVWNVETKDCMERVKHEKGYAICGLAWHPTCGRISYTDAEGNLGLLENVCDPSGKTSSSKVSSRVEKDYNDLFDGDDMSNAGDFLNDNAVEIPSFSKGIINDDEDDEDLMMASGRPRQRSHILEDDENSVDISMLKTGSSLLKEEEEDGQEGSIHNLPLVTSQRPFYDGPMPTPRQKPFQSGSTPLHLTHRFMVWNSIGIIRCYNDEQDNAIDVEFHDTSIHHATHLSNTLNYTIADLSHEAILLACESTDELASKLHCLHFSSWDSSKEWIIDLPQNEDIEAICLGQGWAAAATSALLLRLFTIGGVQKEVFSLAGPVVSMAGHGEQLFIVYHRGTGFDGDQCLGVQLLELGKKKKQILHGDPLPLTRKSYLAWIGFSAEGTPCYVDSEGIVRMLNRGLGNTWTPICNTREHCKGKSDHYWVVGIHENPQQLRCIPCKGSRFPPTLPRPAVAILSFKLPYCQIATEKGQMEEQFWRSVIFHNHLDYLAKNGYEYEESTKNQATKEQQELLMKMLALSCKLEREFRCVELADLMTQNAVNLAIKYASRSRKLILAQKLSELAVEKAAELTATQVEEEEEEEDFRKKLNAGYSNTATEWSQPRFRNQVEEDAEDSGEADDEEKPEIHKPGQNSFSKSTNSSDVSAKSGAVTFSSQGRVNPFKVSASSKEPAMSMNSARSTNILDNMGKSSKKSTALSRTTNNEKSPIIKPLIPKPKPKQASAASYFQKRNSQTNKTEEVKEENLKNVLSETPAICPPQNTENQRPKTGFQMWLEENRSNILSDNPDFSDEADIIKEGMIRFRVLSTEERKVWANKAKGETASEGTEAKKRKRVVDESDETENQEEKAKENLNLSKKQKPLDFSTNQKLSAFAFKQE
Description: And‐1‐Luc reporter HEK293 cells were dispensed at 2000 cells/5 μl/well in tissue culture treated white wall/solid bottom 1536‐well plates (Greiner Bio‐One North America, Monroe, NC, USA) using a Thermo Scientific Multidrop Combi (ThermoFisher Scientific, Inc.). After the cells were incubated in assay plates at 37°C for 5 h, 23 nl of compounds (LOPAC) was transferred into the assay plates using a Wako Pintool station (Wako Automation, San Diego, CA, USA). The assay plates were incubated at 37°C for 48 h, followed by the addition of 5 μl ONE‐Glo luciferase reagent (Promega, Madison, WI, USA) using a Flying Reagent Dispenser (Aurora Discovery, Carlsbad, CA, USA). After 30 min of incubation at room temperature, the luminescence intensity of the assay plates was quantified using a ViewLux plate reader (PerkinElmer, Shelton, CT, USA).
(§1) To evaluate whether And‐1 is required for tumor survival, we examined the dependence of a broad range of tumor cells on And‐1 by using dependency score analysis from DepMap (https://depmap.org/portal/). […] To identify And‐1 specific pharmacologic inhibitor, we established an HTS assay to identify small molecules that can inhibit And‐1 by inducing its degradation. To this end, we first established two stable cell lines, HEK293T‐And‐1‐Luc expressing And‐1 protein fused to a luciferase reporter gene, and HEK293T‐Luc expressing luciferase only (Figure 1B). HEK293T‐And‐1‐Luc cells allow us to monitor And‐1 protein levels by measuring luciferase activity in a high‐throughput manner. Using these cell lines, we conducted a screening for And‐1 inhibitors against a LOPAC small molecule library by using a quantitative HTS (qHTS) as we described previously.[46]

And‐1 [2] = target: T1, And‐1; assay: Immunoblot of And‐1 expression in IGROV1 cells; format: cell-based; conditions: read-out: IC50, And‐1 expression
From the text: (§2) The assay was as previously described.[45]
as §1
(A) Dependency score of WDHD1/And‐1 analyzed by DepMap. […] (B) Establishment of HEK293T‐And‐1‐Luc and HEK293T‐Luc cells for the high‐throughput screen (HTS). (C) Schematic diagram of quantitative HTS (qHTS) for And‐1 inhibitors. (D) Immunoblot analyses to detect And‐1 expression in IGROV1 cells treated with resveratrol at indicated concentrations. (E) Chemical structures of resveratrol and its three analogs as indicated. (F) Left, immunoblot analyses to detect And‐1 expression in IGROV1 cells treated with And‐1 inhibitors at the indicated concentration. Right, quantification of And‐1 expression shown in the left panel.

[3] = design: method as in PMID 15779070; conditions: due to rapid metabolism; cited from earlier work
IGROV1 CR cells = assay: SRB cell viability assay, combination with cisplatin; format: cell-based, human; conditions: by combination index (CI < 1 synergism)
Description: as §2
Synergy of each combination was indicated as combination index (CI) values. […] (C) Tumors of IGROV1 CR xenograft treated with control (vehicle), cisplatin (8 mg/kg/day intraperitoneally), CH3 (20 mg/kg/3days intraperitoneally), or a combination of CH3 and cisplatin for 3 weeks. Ruler scale is in centimeters. (D) Growth curves of IGROV1 CR xenografts. […] (E) IHC staining against And‐1 antibodies of tumor samples from four treated groups of mice. Scale bar: 50 μm. […] Ruler scale is in centimeters. (G) Growth curves of IGROV1 CR xenografts. […] (H) IHC staining against And‐1 antibodies of tumor samples from four treated groups of mice. Scale bar: 50 μm.

IGROV1 cells [4] = assay: Flow cytometry cell cycle analysis (propidium iodide); format: cell-based, human; conditions: 1 µM, FACS
From the text: And‐1 is involved in DNA replication in the S‐phase and is required for the S‐phase progression.[15] We assumed that And‐1 inhibitors should be able to inhibit DNA replication by targeting And‐1.
(§3) Supplementary Figure S1. Identification of novel And-1 inhibitors. […]
Molecular weight of each compound was indicated. (C) Flow cytometry

IGROV1 cells [5] = assay: Immunofluorescence of CtIP recruitment to micro-irradiation induced DSB sites; format: cell-based, human; conditions: 1 µM
Description: as §3
siAnd-1. S: S phase. (D) Immunofluorescence assay to detect CtIP and γH2AX foci formation after CH3 […]
IGROV1 cells treated with DMSO, 1 […]
to immunostain γH2AX and CtIP. For each experiment, 50 cells were counted and the percentage of cells with co-localization of γH2AX and CtIP foci was determined. Data represent means ± SEM from three independent experiments. (E) HR reporter assay to detect HR repair efficiency in cells treated with CH3. […]

IGROV1 CR xenografts = assay: Cisplatin resistant IGROV1 CR xenograft in nude mice; format: in vivo, mouse
[6] = reduction of luciferase activity, qHTS, average of 1 and 2, read-out: IC50 (uM) average
[7] = reduction of luciferase activity, qHTS, column 1, read-out: IC50 (uM) 1
[8] = reduction of luciferase activity, qHTS, column 2, read-out: IC50 (uM) 2
[9] = reduction of luciferase activity, qHTS, column 2

C/C=C(/C)C(=O)O[C@H]1C(C)=C2[C@H]([C@@H]1OC(=O)CCCCCCC)[C@@](C)(OC(C)=O)C[C@H](OC(=O)CCC)[C@@]1(O)[C@H]2OC(=O)[C@@]1(C)O [Thapsigargin] showed a DC50 (And‐1 [1]; [6]) of 6.95 µM, a DC50 (And‐1 [1]; [7]) of 13.3 µM and a DC50 (And‐1 [1]; [8]) of 0.63 µM.
With Oc1ccc(/C=C/c2cc(O)cc(O)c2)cc1 [Resveratrol, 3,5,4′‐trihydroxy‐trans‐stilbene] the DC50 (And‐1 [1]; HEK293T‐And‐1‐Luc cells, qHTS, read-out: IC50, reduction of And‐1 levels (screening)) was 18.9 µM, the DC50 (And‐1 [1]; [6]) was 18.9 µM and the DC50 (And‐1 [1]; [7]) was 14.9 µM. The DC50 (And‐1 [1]; [8]) was 22.9 µM, the DC50 (And‐1 [2]) was 16.7 µM and the oral bioavailability [3] was “low oral bioavailability”.
Compound CCN(CC)CCOc1ccc(Nc2ncc3cc(-c4c(Cl)cccc4Cl)c(=O)n(C)c3n2)cc1 [PD-166285 hydrate] has an IC50 (And‐1 [1]; [6]) of 3.03 µM, an IC50 (And‐1 [1]; [7]) of 3.33 µM and an IC50 (And‐1 [1]; [8]) of 2.73 µM.
In the case of COc1cc2c(cc1O)CC[C@@H]1[C@@H]2CC[C@]2(C)[C@@H](O)CC[C@@H]12 [2-methoxyestradiol], the DC50 (And‐1 [1]; [7]) was 1.67 µM and the “IC50 (uM) 2” value (And‐1 [1]; [9]) was “inactive”.
With CC[C@@]1(O)C(=O)OCc2c1cc1n(c2=O)Cc2cc3c(CN(C)C)c(O)ccc3nc2-1 [Topotecan hydrochloride hydrate] the IC50 (And‐1 [1]; [7]) was 0.61 µM and the “IC50 (uM) 2” value (And‐1 [1]; [9]) was “inactive”.
Work on O=C1C(SCCO)=C(SCCO)C(=O)c2ccccc21 [NSC 95397] yielded an IC50 (And‐1 [1]; [6]) of 9.42 µM, an IC50 (And‐1 [1]; [7]) of 11.2 µM and an IC50 (And‐1 [1]; [8]) of 7.68 µM.
For Cc1c(-c2ccc(O)cc2)n(Cc2ccc(OCCN3CCCCCC3)cc2)c2ccc(O)cc12 [BZA, bazedoxifene acetate], the DC50 (And‐1 [2]) was 0.32 µM, the “synergy with cisplatin to inhibit cell proliferation” value (IGROV1 CR cells) was “significant synergy with cisplatin” and the “percentage of cells in the S‐phase” value (IGROV1 cells [4]) was “reduced the percentage of cells in the S‐phase”. For the same compound, the “recruitment of CtIP to DSB sites induced by micro‐irradiation” value (IGROV1 cells [5]) was “significantly decreased”, the “expression of And‐1 in tumours (IHC)” value (IGROV1 CR xenografts) was “suppressed expression of And‐1 in tumours” and the “resistant tumour growth, combination with cisplatin vs cisplatin alone” value (IGROV1 CR xenografts; cisplatin 8 mg/kg + CH3 20 mg/kg or BZA 2 mg/kg, intraperitoneal, 3 weeks) was “significantly reduced resistant tumour growth”.
For CC[C@@]1(O)C(=O)OCc2c1cc1n(c2=O)Cc2cc3ccccc3nc2-1 [(S)-(+)-Camptothecin], the IC50 (And‐1 [1]; [7]) was 0.73 µM and the “IC50 (uM) 2” value (And‐1 [1]; [9]) was “inactive”.
In the case of Nc1ccn([C@@H]2O[C@H](CO)[C@@H](O)C2(F)F)c(=O)n1 [Gemcitabine hydrochloride], the DC50 (And‐1 [1]; [7]) was 0.02 µM and the “IC50 (uM) 2” value (And‐1 [1]; [9]) was “inactive”.
In the case of CNc1ccc2oc(C[C@H]3O[C@@]4(CC[C@H]3C)O[C@H]([C@H](C)C(=O)c3ccc[nH]3)[C@H](C)C[C@H]4C)nc2c1C(=O)O [Calcimycin], the DC50 (And‐1 [1]; [6]) was 8.32 µM, the DC50 (And‐1 [1]; [7]) was 6.1 µM and the DC50 (And‐1 [1]; [8]) was 10.5 µM.
For CC[n+]1c(/C=C/C=C2/N(C)c3ccccc3C2(C)C)sc2ccccc21 [AC-93253 iodide], the IC50 (And‐1 [1]; [6]) was 0.76 µM, the IC50 (And‐1 [1]; [7]) was 1.09 µM and the IC50 (And‐1 [1]; [8]) was 0.44 µM.
For C=CCc1cccc(/C=N/NC(=O)CN2CCN(Cc3ccccc3)CC2)c1O [PAC-1], the IC50 (And‐1 [1]; [6]) was 21.3 µM, the IC50 (And‐1 [1]; [7]) was 18.8 µM and the IC50 (And‐1 [1]; [8]) was 23.8 µM.
With c1ccc2c(c1)[I+]c1ccccc1-2 [Diphenyleneiodonium chloride] the DC50 (And‐1 [1]; read-out: IC50 (uM) 1) was 0.84 µM, the DC50 (And‐1 [1]; read-out: IC50 (uM) 2) was 0.03 µM and the DC50 (And‐1 [1]; read-out: IC50 (uM) average) was 0.43 µM.
For COCCOC(=O)C1=C(C)NC(C)=C(C(=O)OC/C=C/c2ccccc2)C1c1cccc([N+](=O)[O-])c1 (centres unmarked) [Cilnidipine], the DC50 (And‐1 [1]; [6]) was 21.1 µM, the DC50 (And‐1 [1]; [7]) was 22.9 µM and the DC50 (And‐1 [1]; [8]) was 19.3 µM.
